Test results reported in US8911771B2, “Fluid application device and method” (Otsuka America Pharmaceutical, Inc., priority 2004, dated 2014).

Test system: wide range of bacteria (1050 organisms; clinical isolates from a number of bacterial and fungal species)
Assay: in vitro minimum inhibitory concentration (MIC) testing
Format: cell-based
Details: concentration of olanexidine solution inhibiting >95% of 1050 organisms
Excerpt: The bacteria included in the MIC testing study included clinical isolates from a number of bacterial and fungal species. The MIC method is a widely accepted methodology that is useful for determining and comparing in vitro antimicrobial activity, while the Pig Skin Model is useful for determining activity under simulated conditions of use. The following chart summarizes the results obtained with the Pig Skin Model: […]

MIC: ≤ 32 µg/mL
SMILES: CCCCCCCCNC(=N)NC(=N)NCc1ccc(Cl)c(Cl)c1 [olanexidine, 1-(3,4-dichlorobenzyl)-5-octylbiguanide]
